Target: CBP (Homo sapiens (Human), UniProt Q92793)
Assay: HTRF biochemical assay for CBP activity (TR-FRET, bromodomain)
Type: binding
Conditions: geometric mean, 10-point 3-fold dilution 33 μM to 1.7 nM, read-out: BROMO IC50 TRF TB CBP (μM gmean)
Procedure: Example 1: HTRF Biochemical Assay for CBP Activity
The assay was performed in a final volume of 6 μL in assay buffer containing 50 mM Hepes (pH 7.5, (0.5M Hepes, pH 7.5 solution; Teknova H1575)), 0.5 mM GSH, 0.01% BGG (0.22 p M filtered, Sigma, G7516-25G), 0.005% BSA (0.22 μM filtered, EMD Millipore Corporation, 126575) and 0.01% Triton X-100 (Sigma, T9284-10L). Nanoliter quantities of 10-point, 3-fold serial dilution in DMSO were pre-dispensed into 1536 assay plates (Corning, #3724BC) for a final test concentration of 33 μM to 1.7 nM, top to lowest dose, respectively. 3 μL of 2×Protein and 3 μL of 2×Peptide Ligand were added to assay plates (pre-stamped with compound). Plates were incubated for varying times at room temperature prior to measuring the signal. TR-FRET (Time-Resolved Fluorescence Resonance Energy Transfer) was measured on the PHERAstar (BMG, equipped with HTRF optic module [337/520/490]) or on the Envision (PerkinElmer, equipped with the TRF Laser unit, TRF dual mirror D400/D505 and emission filters M520 and M495). Data were reported as percent inhibition compared with control wells based on the following equation: % inh=1−((TR-FRET ratio−AveLow)/(AveHigh−AveLow)) where TR-FRET ratio=(Fluorescence at 520 nm/Fluorescence at 490 nm)*10000), AveLow=average TR-FRET ratio of no enzyme control (n=32), and AveHigh=average TR-FRET ratio of DMSO control (n=32). IC50 values were determined by curve fitting of the standard 4 parameter logistic fitting algorithm included in the Activity Base software package: IDBS XE Designer Model205. Data is fitted using the Levenburg Marquardt algorithm. As set forth in Table 2 below, an IC50 value of greater than or equal to 0.001 μM and less than or equal to 0.01 μM is marked “++++”; a value greater than 0.01 μM and less than or equal to 0.1 μM is marked “+++”; a value greater than 0.1 μM and less than or equal to 1 μM is marked “++”; and a value greater than 1 μM and less than 1000 μM is marked “+.” Compounds that were not tested in a particular assay are marked “NT.”

CBP, sequence (Q92793 1085-1192): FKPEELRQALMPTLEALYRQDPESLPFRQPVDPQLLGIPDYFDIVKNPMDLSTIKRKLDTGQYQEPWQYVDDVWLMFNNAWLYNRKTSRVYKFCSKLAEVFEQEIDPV

Row | Compound | IC50
1 | COC(=O)N1CCc2ccc3c(nc([C@H]4CC[C@H](C(=O)O)CC4)n3[C@@H](C)Cc3ccccc3Cl)c2C1 [Compound 42] | 0.001 to 0.01 µM
2 | COC(=O)N1CCc2ccc3c(nc(-c4ccc(C(=O)O)c(F)c4)n3[C@H](C)Cc3ccccc3)c2C1 [Compound 280] | 0.01 to 0.1 µM
3 | COC(=O)N1CCc2ccc3c(nc(N4CCCCC4)n3C[C@@H](CC(=O)O)c3ccc(F)c(F)c3)c2C1 [Compound 25] | 0.001 to 0.01 µM
4 | COC(=O)N1CCc2ccc3c(nc(N4CCC[C@@H](C(=O)O)C4)n3[C@@H](C)Cc3ccccc3)c2C1 [Compound 82] | 0.001 to 0.01 µM
5 | COC(=O)N1CCc2c(C(=O)O)cc3c(nc(C4CCCCC4)n3CCc3ccccc3)c2C1 [Compound 149] | 0.001 to 0.01 µM
6 | COC(=O)N1Cc2c(ccc3c2nc(C2CCCCC2)n3CCc2ccccc2)CC1C (centres unmarked) [Compound 238] | 0.01 to 0.1 µM
7 | COC(=O)N1CCc2ccc3c(nc([C@H]4CC[C@H](C(=O)O)CC4)n3[C@@H](C)Cc3ccncc3)c2C1 [Compound 216] | 0.01 to 0.1 µM
8 | COC(=O)N1CCc2ccc3c(nc([C@H]4CC[C@H](C(=O)O)CC4)n3[C@H](C)Cc3ccc(C)c(F)c3)c2C1 (single isomer, unassigned) [Compound 283] | 0.01 to 0.1 µM
9 | COC(=O)N1CCc2ccc3c(nc(C4CCCCC4)n3C[C@H](CC(=O)O)c3ccc(F)c(F)c3)c2C1 (single isomer, unassigned) [Compound 189] | 0.01 to 0.1 µM
10 | COC(=O)N1CCc2ccc3c(nc(N4CCCCC4)n3C[C@@H](CC(=O)O)c3ccccc3)c2C1 [Compound 47] | 0.001 to 0.01 µM
11 | COC(=O)N1CCc2ccc3c(nc(C4CCCCC4)n3CCc3ccccc3C(=O)O)c2C1 [Compound 137] | 0.001 to 0.01 µM
12 | COC(=O)N1CCc2c(C#N)cc3c(nc([C@H]4CC[C@H](C(=O)O)CC4)n3[C@H](C)Cc3ccccc3)c2C1 [Compound 269] | 0.01 to 0.1 µM
13 | COC(=O)N1CCc2ccc3c(nc(-c4ccc(C(C)(C)C(=O)O)cc4)n3[C@@H](C)Cn3cc(Cl)cn3)c2C1 [Compound 258] | 0.01 to 0.1 µM
14 | COC(=O)N1CCc2ccc3c(nc([C@H]4CC[C@H](C(=O)O)CC4)n3[C@H](C)[C@H](O)c3ccccc3)c2C1 [Compound 276] | 0.01 to 0.1 µM
15 | COC(=O)N1CCc2ccc3c(nc([C@H]4CC[C@H](C(=O)O)CC4)n3[C@@H](CO)Cc3ccc(F)c(F)c3)c2C1 [Compound 74] | 0.001 to 0.01 µM
16 | COC(=O)N1CCc2c(C(=O)O)cc3c(nc(C4CCCCC4)n3[C@H](C)Cc3ccccc3)c2C1 [Compound 300] | 0.1 to 1 µM
17 | COC(=O)N1CCc2ccc3c(nc([C@H]4CC[C@H](C(=O)O)CC4)n3C[C@H]3CCc4ccccc4C3)c2C1 [Compound 169] | 0.001 to 0.01 µM
18 | COC(=O)N1CCc2c([C@@H]3CCOC3)cc3c(nc([C@H]4CC[C@H](C(=O)O)CC4)n3[C@@H](C)Cc3ccccc3)c2C1 [Compound 50] | 0.001 to 0.01 µM
19 | COC(=O)N1CCc2ccc3c(nc([C@H]4CC[C@@H](S(N)(=O)=O)CC4)n3[C@@H](C)Cc3ccccc3)c2C1 [Compound 166] | 0.001 to 0.01 µM
20 | COC(=O)N1CCc2ccc3c(nc([C@H]4CC[C@](C)(C(=O)O)CC4)n3[C@H](CO)Cc3ccccc3)c2C1 [Compound 117] | 0.001 to 0.01 µM
21 | COC(=O)N1CCc2ccc3c(nc([C@H]4CC[C@H](C(=O)O)CC4)n3[C@@H]3CCc4ccccc4C3)c2C1 [Compound 335] | 0.1 to 1 µM
22 | COC(=O)N1CCc2ccc3c(nc(N4CCC(C(=O)O)CC4)n3[C@@H](C)Cn3cc(Cl)cn3)c2C1 [Compound 73] | 0.001 to 0.01 µM
23 | COC(=O)N1CCc2ccc3c(nc([C@H]4CC[C@@](C)(C(=O)O)CC4)n3[C@@H](C)Cn3cc(Cl)cn3)c2C1 [Compound 41] | 0.001 to 0.01 µM
24 | (3R)-4-[2-cyclohexyl-8-(methoxycarbonyl)-3H,6H,7H,8H,9H-imidazo[4,5-h]isoquinolin-3-yl]-3-(3-fluoro-5-methoxyphenyl)butanoic acid [Compound 194] | 0.01 to 0.1 µM
25 | COC(=O)N1CCc2ccc3c(nc(C4CCCCC4)n3C[C@H]3CCCC[C@@H]3C(=O)O)c2C1 [Compound 196] | 0.01 to 0.1 µM
26 | COC(=O)N1CCc2ccc3c(nc([C@@H]4CCC[C@@H](C(=O)O)C4)n3Cc3cncc(Cl)n3)c2C1 [Compound 293] | 0.1 to 1 µM
27 | COC(=O)N1CCc2ccc3c(nc(-c4cccnc4)n3[C@@H](C)Cc3ccccc3)c2C1 [Compound 127] | 0.001 to 0.01 µM

Row | Compound | IC50
28 | COC(=O)N1CCc2ccc3c(nc([C@H]4CC[C@H](C(=O)O)CC4)n3[C@@H](C)Cc3ccc(OC(F)F)cc3)c2C1 [Compound 69] | 0.001 to 0.01 µM
29 | COC(=O)N1CCc2ccc3c(nc(C4CCCCC4)n3[C@H](Cc3ccccc3)C(=O)O)c2C1 [Compound 206] | 0.01 to 0.1 µM
30 | COC(=O)N1CCc2ccc3c(nc([C@H]4CC[C@H](C(=O)O)CC4)n3[C@@H](C)C[C@H]3CC[C@@H](OC(F)(F)F)CC3)c2C1 [Compound 226] | 0.01 to 0.1 µM
31 | COC(=O)N1CCc2ccc3c(nc([C@H]4CC[C@H](C(=O)O)CC4)n3[C@@H](C)Cc3c(C)cccc3C)c2C1 [Compound 6] | 0.001 to 0.01 µM
32 | COC(=O)N1CCc2ccc3c(nc([C@H]4CC[C@](C)(C(=O)O)CC4)n3[C@@H](C)Cc3ccccc3)c2C1 [Compound 224] | 0.01 to 0.1 µM
33 | COC(=O)N1CCc2ccc3c(nc(C4CCCCC4)n3CC[C@H]3CCCC[C@H]3C(=O)O)c2C1 [Compound 193] | 0.01 to 0.1 µM
34 | COC(=O)N1CCc2ccc3c(nc(C4CCN(S(C)(=O)=O)CC4)n3[C@H](C)Cn3cc(Cl)cn3)c2C1 [Compound 110] | 0.001 to 0.01 µM
35 | COC(=O)N1CCc2ccc3c(nc([C@H]4CC[C@H](C(=O)O)CC4)n3[C@@H](C)Cc3cccc(C)c3)c2C1 [Compound 100] | 0.001 to 0.01 µM
36 | COC(=O)N1CCc2ccc3c(nc([C@H]4CC[C@@H](C(=O)O)CC4)n3[C@@H](C)Cn3cc(Cl)cn3)c2C1 [Compound 264] | 0.01 to 0.1 µM
37 | COC(=O)N1CCc2ccc3c(nc(N4CCC(C(=O)O)CC4)n3[C@@H](C)Cc3ccccc3C)c2C1 [Compound 63] | 0.001 to 0.01 µM
38 | COC(=O)N1CCc2ccc3c(nc([C@H]4CC[C@H](C(=O)O)CC4)n3[C@H](CO)Cc3ccc(F)c(F)c3)c2C1 [Compound 288] | 0.01 to 0.1 µM
39 | COC(=O)N1CCc2ccc3c(nc([C@H]4CCC[C@H](C(=O)O)C4)n3Cc3ccc(OC(F)F)cc3)c2C1 [Compound 209] | 0.01 to 0.1 µM
40 | COC(=O)N1CCc2c(Cl)cc3c(nc([C@H]4CC[C@H](C(=O)O)CC4)n3[C@@H](C)Cc3ccccc3)c2C1 [Compound 81] | 0.001 to 0.01 µM
41 | COC(=O)N1CCc2ccc3c(nc(C4CCCCC4)n3[C@@H](C)Cc3cccc(C(=O)O)c3)c2C1 [Compound 102] | 0.001 to 0.01 µM
42 | COC(=O)N1CCc2ccc3c(nc([C@H]4CC[C@@H](OC)CC4)n3C[C@@H](C(=O)O)c3ccccc3)c2C1 [Compound 64] | 0.001 to 0.01 µM
43 | COC(=O)N1CCc2ccc3c(nc(N4CCC[C@@H](C(=O)O)C4)n3C[C@H](C)c3ccccc3)c2C1 [Compound 144] | 0.001 to 0.01 µM
44 | COC(=O)N1CCc2ccc3c(nc(C4CCCCC4)n3[C@@H](C)CC3CCCC[C@@H]3C(=O)O)c2C1 (some centres unmarked) [Compound 39] | 0.001 to 0.01 µM
45 | COC(=O)N1CCc2ccc3c(nc([C@H]4CC[C@H](C(=O)O)CC4)n3[C@H](C)Cc3c(F)cccc3F)c2C1 [Compound 95] | 0.001 to 0.01 µM
46 | COC(=O)N1CCc2ccc3c(nc([C@H]4CCC[C@H](C(=O)O)C4)n3Cc3cncc(Cl)n3)c2C1 [Compound 254] | 0.01 to 0.1 µM
47 | COC(=O)N1CCc2ccc3c(nc(Cc4cc(O)no4)n3[C@H](C)Cc3ccccc3)c2C1 [Compound 273] | 0.01 to 0.1 µM
48 | COC(=O)N1Cc2c(ccc3c2nc([C@H]2CC[C@H](C(=O)O)CC2)n3[C@H](C)Cc2ccc(F)c(F)c2)C[C@@H]1C [Compound 129] | 0.001 to 0.01 µM
49 | COC(=O)N1CCc2ccc3c(nc([C@@H]4CCC[C@@H](C(=O)O)C4)n3C(C)Cc3ccccc3)c2C1 (stereo in doubt) [Compound 298, (1R,3R)-3-[8-(methoxycarbonyl)-3-[(2R)-1-phenylpropan-2-yl]-3H,6H,7H,8H,9H-imidazo[4,5-h]isoquinolin-2-yl]cyclohexane-1-carboxylic acid] | 0.1 to 1 µM
50 | COC(=O)N1CCc2ccc3c(nc([C@H]4CC[C@H](C(=O)O)CC4)n3[C@@H](C)C[C@H]3CCCCO3)c2C1 [Compound 147] | 0.001 to 0.01 µM
51 | COC(=O)N1CCc2ccc3c(nc(-c4ccc(C(=O)O)c(OC)c4)n3[C@@H](C)Cc3ccccc3)c2C1 [Compound 208] | 0.01 to 0.1 µM
52 | COC(=O)N1CCc2ccc3c(nc(C4CCCCC4)n3CC[C@H]3CC[C@H](C(=O)O)CC3)c2C1 [Compound 243] | 0.01 to 0.1 µM
53 | COC(=O)N1CCc2ccc3c(nc([C@H]4CC[C@H](C(=O)O)CC4)n3[C@@H](C)C[C@]3(C)CC[C@H](OC)CC3)c2C1 [Compound 57] | 0.001 to 0.01 µM

Source: patent publication US20250188079A1, “INHIBITING CYCLIC AMP-RESPONSIVE ELEMENT-BINDING PROTEIN (CREB)” (Forma Therapeutics, Inc., priority 2019, published 2025)
